The record followed here is patent US9012433B2, “Substituted tetracycline compounds” (Paratek Pharmaceuticals, Inc., priority 2006, dated 2015).

A short description of one data set: in vitro. Type of data set: cell-based. A digest of the protocol: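 COS-1 or CHO cells exposed to serial dilutions of test compound for 24 hours. Metabolic activity then read with resazurin (Alamar Blue): 2 hours incubation plus 30 minutes dark at room temperature, fluorescence ex 535/em 590 nm, treated versus control.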
The subject of data set [1] is carrageenan induced rat paw inflammation. The data set is described as follows: Rat carrageenan-induced paw edema inflammatory model. The format is in vivo. The following applies: IP, various doses, FIG. 1. As to the method: The model used a sub-plantar injection of carrageenan in the rat to induce an inflammatory response. The test compound or saline (control) was administered IP 30 minutes before a subplantar injection of carrageenan (1.5 mg/0.1 mL). Paw volume was measured […] before subplantar injection and again 3 hours after the injection of carrageenan using a plethysmometer. Significant differences as determined by a Kruskal-Wallis One Way ANOVA are noted between the inflammation of the untreated controls versus treated animals […]
Background: Carrageenan injected into the paw causes an acute inflammation.

The test system of data set [2] is S. aureus RN450. The data set is described as follows: In vivo anti-bacterial activity, S. aureus model. The following applies: mice, 24 hours; for responders at 5 mg/kg / ED50: Staphylococcus aureus, sc; for responders at 5 mg/kg: read-out: Percent Survival; for ED50: lethal IP S. aureus RN450, subcutaneous, read-out: PD50 (dose that protects 50% of the animals). As to the method: Groups of five mice were injected intraperitoneally with a lethal dose of S. aureus RN450 in a medium of mucin. Mice were evaluated at 24 hours to determine survival. […] In some instances, a dose response study was performed with the compound such that a PD50 (a dose of compound that protects 50% of the animals) could be calculated.

The test system of data set [3] is S. aureus RN450. Briefly: Antibacterial MIC, CLSI broth microdilution. The following applies: Staphylococcus aureus, RN450; 35° C., 18-24 hours. Type of data set: cell-based. The method, boiled down: (§1)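 CLSI broth microdilution in cation-supplemented Mueller Hinton broth, inoculum 1×10^5 cfu from 0.5 McFarland cultures diluted 1:200. Incubated 35° C in ambient air for 18-24 hours. Growth read spectrophotometrically and checked manually; MIC (μg/mL) is the lowest compound dilution inhibiting growth.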

The subject of another data set is E. coli ATCC 25922. Briefly: Antibacterial MIC, CLSI broth microdilution. The format is cell-based. The following applies: Escherichia coli, ATCC25922; 35° C., 18-24 hours. The method, boiled down:
as §1
In general terms: In broth dilution the organism is exposed to a series of concentrations in liquid medium.

Data set [4] deals with S. pneumoniae 157E - Strep. Briefly: Antibacterial MIC, CLSI broth microdilution. The format is cell-based. Conditions: Streptococcus pneumoniae, 157ESTREP; 35° C., 18-24 hours; lysed horse blood. The method, boiled down:
as §1

The test system of a further data set is E. coli MG 1655. The data set is described as follows: Antibacterial MIC, CLSI broth microdilution. Conditions: Escherichia coli, MG1655; 35° C., 18-24 hours. The format is cell-based. A digest of the protocol: as §1
The subject of data set [5] is B. thetaiotaomicron ATCC 29741. The data set is described as follows: Antibacterial MIC, CLSI broth microdilution. The format is cell-based. The following applies: Bacteroides thetaiotaomicron.
The subject of the next data set is P. acnes ATCC 6919. The data set is described as follows: Antibacterial MIC, CLSI broth microdilution. The format is cell-based. Conditions: Cutibacterium acnes, ATCC6919; 35° C., 18-24 hours. The method, boiled down:
as §1

Another data set deals with P. acnes ATCC 11827. The data set is described as follows: Antibacterial MIC, CLSI broth microdilution. Type of data set: cell-based. Conditions: Cutibacterium acnes, ATCC11827; 35° C., 18-24 hours. The method, boiled down:
as §1

Data set [6] in a line: Half-life of oxidation, sodium periodate accelerated oxidation. The format is physicochemical. On the procedure: Not to be limited by theory, it is believed that the tissue staining may be caused oxidative instability. The tetracycline compounds were subjected to accelerated oxidation in a continuous-flow microreactor using a 15 molar excess of sodium periodate at pH 11 and 22° C. Aliquots of each reaction mixture were quenched at various time points with ascorbic acid and the disappearance of each compound was determined by RP-HPLC. Pseudo first-order rate constants and t1/2 values were obtained from the plots of log (Ao-At/Ao) versus time, where Ao is the HPLC area determined for each compound at time=0 and At is the HPLC area at time=t.

The mark [7] stands for this setting: lethal IP S. aureus RN450, single subcutaneous dose 5 mg/kg.
Setting [8] is: ATCC29741, 35° C., 18-24 hours, read-out: MIC B. thetaiotaomicron ATCC 29741.
[9] abbreviates: ATCC29741, read-out: MIC B. thetaiotaomicron ATCC 29741.

Converted amounts (≈) assume the structure as drawn. Where two headings read alike, the source gives them in different places.

Regarding `CCO/N=C(/C)c1ccc(O)c2c1C[C@H]1C[C@H]3[C@H](N(C)C)C(O)=C(C(N)=O)C(=O)[C@@]3(O)C(O)=C1C2=O` [A], the concentration for half-maximal inhibition (IC50) at 24 h in “in vitro” (African green monkey) and in “in vitro” (Chinese hamster) was less than 35 µg/mL each time. In addition, the “modulation of carrageenan induced inflammation compared with doxycycline” value in data set [1] is recorded as “improved activity”. Further, in the data set with S. aureus RN450 [2] (setting [7]), the responders at 5 mg/kg came to 100%. Besides, the minimal inhibitory concentration (MIC) – broadly, the smallest concentration in the dilution series that meets the test's criterion for growth inhibition – in the data set with S. aureus RN450 [3] is less than 4 µg/mL; in the data set on E. coli ATCC 25922, less than 4 µg/mL; in data set [4], less than 4 µg/mL; with E. coli MG 1655 it was 4 to 8 µg/mL (≈ 8.01 to 16 µM); in data set [5] (setting [8]), greater than 8 µg/mL; against P. acnes ATCC 6919 it was less than 4 µg/mL. Further, the MIC with P. acnes ATCC 11827 is less than 4 µg/mL.

As to `CN(C)c1cc(C#N)c(O)c2c1C[C@H]1C[C@H]3[C@H](N(C)C)C(O)=C(C(N)=O)C(=O)[C@@]3(O)C(O)=C1C2=O` [B], the 50% inhibitory concentration (IC50) at 24 h in “in vitro” (African green monkey) and in the data set “in vitro” (Chinese hamster) was less than 35 µg/mL throughout. The half-life (usually how long it takes for the measured level to halve) in data set [6] (15 molar excess of sodium periodate, pH 11, 22° C., read-out: half-life for oxidation (converted)) is 8.25 min. Also, the MIC with S. aureus RN450 [3] is less than 4 µg/mL; against E. coli ATCC 25922, greater than 8 µg/mL; in [4], less than 4 µg/mL; with E. coli MG 1655, greater than 8 µg/mL; in data set [5] (setting [8]) it was 4 to 8 µg/mL (≈ 8.29 to 16.6 µM); in the data set on P. acnes ATCC 6919, less than 4 µg/mL. In the data set on P. acnes ATCC 11827, this compound returned an MIC of less than 4 µg/mL.

`C[C@H]1c2cccc(O)c2C(=O)C2=C(O)[C@]3(O)C(=O)C(C(N)=O)=C(O)[C@@H](N(C)C)[C@@H]3[C@@H](O)[C@@H]21` [Doxycycline, reference compound]: the IC50 at 24 h in “in vitro” (African green monkey) and in the data set “in vitro” (Chinese hamster) was greater than 75 µg/mL in each case. Moreover, in the data set on S. aureus RN450 [2] (setting [7]), the responders at 5 mg/kg was found to be 100%. Also, the ED50 in the data set with S. aureus RN450 [2] was determined as 0.13 mg/kg. In the data set with S. aureus RN450 [2] (lethal IP S. aureus RN450, single subcutaneous dose 5 mg/kg, 5 mg/kg), the “Percent Survival” value is listed as 100 (5/5) Percent. In addition, the minimum inhibitory concentration (MIC) with S. aureus RN450 [3] is less than 4 µg/mL; in the data set on E. coli ATCC 25922, less than 4 µg/mL; in [4] it was less than 4 µg/mL; against E. coli MG 1655, less than 4 µg/mL; in data set [5] (setting [9]), 4 to 8 µg/mL (≈ 9 to 18 µM); in the data set with P. acnes ATCC 6919, less than 4 µg/mL. The compound also registered an MIC in the data set on P. acnes ATCC 11827 of less than 4 µg/mL.

With `CN(C)c1ccc(O)c2c1C[C@H]1C[C@H]3[C@H](N(C)C)C(O)=C(C(N)=O)C(=O)[C@@]3(O)C(O)=C1C2=O` [Minocycline, reference compound], the half-inhibitory concentration (IC50) at 24 h in “in vitro” (African green monkey) and in the data set “in vitro” (Chinese hamster) was greater than 75 µg/mL each time. The half-life in [6] (buffer, pH 11) was 0.137 min. The minimal inhibitory concentration (MIC) against S. aureus RN450 [3] is less than 4 µg/mL; with E. coli ATCC 25922 it was less than 4 µg/mL; in data set [4], less than 4 µg/mL; in the data set on E. coli MG 1655, less than 4 µg/mL; in data set [5] (setting [9]) it was 4 to 8 µg/mL (≈ 8.74 to 17.5 µM); against P. acnes ATCC 6919 it was less than 4 µg/mL. In the data set with P. acnes ATCC 11827, this compound yielded an MIC of less than 4 µg/mL.

Turning to `CON(C)Cc1ccc(O)c2c1C[C@H]1C[C@H]3[C@H](N(C)C)C(O)=C(C(N)=O)C(=O)[C@@]3(O)C(O)=C1C2=O` [P], the IC50 at 24 h in “in vitro” (African green monkey) and in the data set “in vitro” (Chinese hamster) was greater than 75 µg/mL throughout. For the same compound, the responders at 5 mg/kg in the data set with S. aureus RN450 [2] (setting [7]) worked out at 100%. For the same compound, the ED50 in the data set on S. aureus RN450 [2] turned out to be 0.13 mg/kg. In addition, the minimum inhibitory concentration (MIC) was less than 4 µg/mL with S. aureus RN450 [3]; 4 to 8 µg/mL (≈ 8.2 to 16.4 µM) against E. coli ATCC 25922; less than 4 µg/mL in [4]; 4 to 8 µg/mL (≈ 8.2 to 16.4 µM) in the data set with E. coli MG 1655; 4 to 8 µg/mL (≈ 8.2 to 16.4 µM) in [5] (setting [9]); less than 4 µg/mL with P. acnes ATCC 6919. The MIC with P. acnes ATCC 11827 was less than 4 µg/mL.

In the case of `C/C(=N\OC(C)(C)C)c1cc(N)c(O)c2c1C[C@H]1C[C@H]3[C@H](N(C)C)C(O)=C(C(N)=O)C(=O)[C@@]3(O)C(O)=C1C2=O` [Q, (4S,4aS,5aR,12aS)-9-Amino-7-(1-tert-butoxyimino-ethyl)-4-dimethylamino-3,10,12,12a-tetrahydroxy-1,11-dioxo-1,4,4a,5,5a,6,11,12a-octahydro-naphthacene-2-carboxylic acid amide], the concentration for half-maximal inhibition (IC50) at 24 h in “in vitro” (African green monkey) and in “in vitro” (Chinese hamster) was less than 35 µg/mL each time. Moreover, the responders at 5 mg/kg in the data set with S. aureus RN450 [2] (setting [7]) amounted to 100%. Besides, the ED50 in the data set on S. aureus RN450 [2] was 0.45 mg/kg. Further, the MIC is less than 4 µg/mL against S. aureus RN450 [3]; 4 to 8 µg/mL (≈ 7.37 to 14.7 µM) in the data set on E. coli ATCC 25922; less than 4 µg/mL in data set [4]; 4 to 8 µg/mL (≈ 7.37 to 14.7 µM) in the data set on E. coli MG 1655; 4 to 8 µg/mL (≈ 7.37 to 14.7 µM) in data set [5] (setting [8]); less than 4 µg/mL in the data set on P. acnes ATCC 6919. In the data set with P. acnes ATCC 11827, this compound came in with an MIC of less than 4 µg/mL.

As to `CO/N=C/c1cc(N(C)C)c2c(c1O)C(=O)C1=C(O)[C@]3(O)C(=O)C(C(N)=O)=C(O)[C@@H](N(C)C)[C@@H]3C[C@@H]1C2` [V, (4S,4aS,5aR,12aS)-4,7-Bis-dimethylamino-3,10,12,12a-tetrahydroxy-9-(methoxyimino-methyl)-1,11-dioxo-1,4,4a,5,5a,6,11,12a-octahydro-naphthacene-2-carboxylic acid amide], the half-inhibitory concentration (IC50) at 24 h in the data set “in vitro” (African green monkey) and in the data set “in vitro” (Chinese hamster) was less than 35 µg/mL in each case. Further, the ED50 with S. aureus RN450 [2] stood at 1.4 mg/kg. The minimum inhibitory concentration (MIC) in the data set on S. aureus RN450 [3] is less than 4 µg/mL; in the data set on E. coli ATCC 25922, greater than 8 µg/mL; in data set [4], less than 4 µg/mL; in the data set with E. coli MG 1655, greater than 8 µg/mL; in [5] (setting [8]) it was 4 to 8 µg/mL (≈ 7.77 to 15.5 µM); against P. acnes ATCC 6919, less than 4 µg/mL. For the same compound, the MIC in the data set on P. acnes ATCC 11827 was less than 4 µg/mL.
